Data as given in a melting point compilation (Tetko et al.; mined from patent text by program, amines drawn as free bases though some values may be those of a salt).

melting point [°C] | SMILES
125 | CCN(CC)S(=O)(=O)c1cc2c(c(C(=O)NCc3ccccc3)c1)OCCO2
110 to 115 | COc1cccc(CC2CCN(C(=O)C(=O)Nc3ccc4[nH]c(=O)oc4c3)CC2)c1
110 to 111 | CC(CO)NC(=O)C(NC(=O)OCc1ccccc1)C(Cc1ccccc1)C(=O)O (stereo unspecified)
233 to 234 | CC(=O)NC1=C(N)C(=O)c2ccccc2C1=O
78 to 79 | Clc1cc2snnc2s1
273 to 276 | CS(=O)(=O)c1c[nH]c(=O)c(I)c1
167 to 170 | CC=CCn1c(=O)n(C2OC(CO)C(O)C2O)c2nc(N)[nH]c(=O)c21 (stereo unspecified)
109 to 110 | CCOC(Cc1ccc(OCCN(C)c2nc3ccccc3o2)cc1)C(=O)O (stereo unspecified)
139 to 140 | COC(=O)C(=O)Nc1cc(OCCCOc2ccc(C(C)=O)c(O)c2CCC(F)(F)F)c(Br)cc1C
158 to 161 | OC1CSC(Oc2cccc(-c3ccncc3Cl)c2)C(O)C1O (stereo unspecified)
154 to 160 | COc1ccc(-n2cc(C)cc2-c2ccc(S(C)(=O)=O)cc2)cc1
69 to 70 | CCC(O)(c1ccc(OCCN(C)C)cc1)c1cccc(C(F)(F)F)c1 (stereo unspecified)
104 to 108 | C=CCNC(=O)Nc1nc2nc(NCCCN3CCN(C)CC3)ncc2cc1-c1c(Cl)cccc1Cl
298 to 300 | Cc1ccc(-c2ncnc(-c3cccc(C(=O)O)c3)n2)cc1
> 230 | C#CC#Cc1ccc(C(=O)O)cc1
74 to 76 | CC(C)(C)OC(=O)[C@@H]1CCCN2C(=O)CC[C@H](NC(=O)c3ccccc3)C(=O)N12
118 to 120 | Cc1nnc(C(=O)CCCCCCOc2ccc(OCc3ccccc3)cc2)o1
272 to 274 | N#Cc1ccc2cc(-c3ccc(O)cc3)oc2c1
120 to 122 | O=c1c2cccnc2c(-c2cccc(Cl)c2)cn1CC1CC1
110 to 112 | CC12CC=C3C4=C(CCC3C1CCC2=O)CC1(CC4)OCCO1 (stereo unspecified)
180 to 181 | O=C1C(=Cc2ccc(-c3cccs3)s2)CCc2cc(OCCn3ccnc3)ccc21
75 | ClCCCCn1c2c(c3ccccc31)CCSc1ccccc1-2
168 to 169 | CC(C)C[C@H](N[C@H](CCN1C(=O)c2cc3ccccc3cc2C1=O)C(=O)OC(C)(C)C)C(=O)O

The next lines start with the compound.

SMILES | melting point [°C]
Nc1nc(N)c2ncn(/C=C3/CC3(CO)CO)c2n1 | 219 to 220
CC(=O)N(C)c1cccc(C2=CCNc3c(C#N)cnn32)c1 | 114 to 120
COC(=O)c1ccc(CC(C)NCC(O)c2ccc(O)c(O)c2)cc1 (stereo unspecified) | 169
CSc1ncc(CCc2cccnc2)c(=O)[nH]1 | 191 to 192
COc1ccc(-n2nc(OCC(F)(F)F)nc2-c2ccc(OC)nc2)cc1 | 82 to 83
CC1(C)SC2C(NC(c3ccccc3)(c3ccccc3)c3ccccc3)C(=O)N2C1C#N (stereo unspecified) | 116 to 119
CCCCCCCCCCCCCCCc1cccc(OCC#CC(=O)C(F)(F)F)c1 | 35 to 36
Cn1cc(-c2ccc(C(F)(F)F)cc2)c(=O)c(-c2cccc(C(F)(F)F)c2)c1 | 110 to 113
O=Cc1ccc2ccc(-c3ccccc3)nc2c1 | 108
Cc1cc(C)c(C2C(=O)OC3(CCN(N(C)C)CC3)C2=O)c(C)c1 (stereo unspecified) | > 200
O=C(OCc1ccccc1)[C@@H]1COC(c2ccccc2OCc2ccccc2)=N1 | 69 to 71
CCC(C=CC(C)C1CCC2C3CCC4=CC(=O)CCC4(C)C3CCC12C)C(C)C (stereo unspecified) | 121 to 123
COC(=O)c1cc(Cl)c(C)c(Cl)c1 | 47.5 to 48.5
O=C(Nc1cc(-c2nc(Cc3ccccc3)no2)ccn1)c1ccccc1 | 150 to 151
CCn1c(=O)c2c(-c3nc(C4CC4)no3)ncn2c2cccnc21 | 262 to 263
CN1C2CCC1CN(c1ccc(-c3ccccc3)cn1)C2 | 110
CCOC(=O)Cc1ccc(-c2ccc(F)cc2F)c(F)c1 | 50 to 52
CCOC(=O)NN=Cc1c[nH]c(COC)n1 | 186 to 190
